Ten compounds from patent publication US12059422B2 (MEI Pharma, Inc., priority 2011, dated 2024) can be followed below.

Experiment [1] addresses PI3Kα (Homo sapiens, UniProt P42336). In words: ELISA assay for PI3Kα: in-cell ELISA, phosphorylation of AKT (Thr308) in MDA-MB-453 cells. The note with it: cellular, pAKT (Thr308), IGF-1 stimulation, read-out: IC50 p110α. The format is cell-based. The procedure: PI3K alpha (PI3Kα) activity was determined by measuring the phosphorylation of AKT (Thr308) using an in-cell ELISA assay. MDA-MB-453 (breast carcinoma) cells were obtained from ATCC (ATCC #HTB-131). Growth medium was DMEM (CellGro #CV-10-013-CV) supplemented with 10% fetal bovine serum, 100 IU/mL penicillin, 100 μg/mL streptomycin, and 1×MEM non-essential amino acids. Phosphate buffered saline (PBS) contained 2.7 M NaCl, 54 mM KCl, 86 mM […] (dibasic, anhydrous), and 28 mM […] (monobasic, anhydrous) at pH 7.2. Stimulation mixture (10×) was 1000 ng/mL LONG® R^3 human IGF-1 (Sigma #I1271) diluted in serum-free DMEM medium (CellGro #CV-10-013-CV). Compounds for testing were dissolved and serially diluted in 100% DMSO (total of 10 concentrations), then diluted in serum-free DMEM to 2× final assay concentration. Fixative solution (2×) was 8% formaldehyde (Amresco #M134) diluted in PBS. Permeabilization solution was PBS supplemented with 0.1% Triton X-100. Blocking buffer was obtained from LiCor (LiCor #927-40000). Wash buffer was PBS supplemented with 0.1% Tween-20. Primary antibody solution was rabbit anti-pAKT^T308 monoclonal antibody (Cell Signaling #2965) and mouse anti-total S6 (Santa Cruz #74459) diluted 1:500 and 1:2000, respectively, in the blocking buffer. Secondary antibody solution was IRDye 800CW-conjugated goat anti-rabbit IgG (LiCor #926-32211) and IRDye 680LT-conjugated goat anti-mouse IgG (LiCor #926-68020) diluted 1:1000 and 1:2000, respectively, in the blocking buffer.
MDA-MB-453 cells were subcultured in growth medium and seeded into flat, clear bottom, 96-well plates (Corning #3904) at 40000 cells/well, then incubated overnight in a 5% CO2 incubator at 37° C. Growth medium in plates was replaced with 100 μL/well serum-free DMEM and incubated overnight at 37° C. in a 5% CO2 incubator. Fresh serum-free DMEM (50 μL/well) was added to plates. Compound treatment was performed by adding 50 μL/well of 2× compound mixture to plates and incubating for 1 hr at 37° C. and 5% CO2, after which 11 μL/well of 10× stimulation mixture was added and plates were incubated for 10 min at 37° C. and 5% CO2. Fixation was performed by adding 110 μL/well of 2× fixative solution to the plates and incubating for 20 min at room temperature. Permeabilization was performed by replacing fixation solution with 150 μL/well permeabilization solution and incubating for 10 min at room temperature. Permeabilization was repeated (for a total of 2 times). Permeabilization solution was replaced with 100 μL/well blocking buffer and plates were incubated for 1 hour at room temperature, after which 100 μL/well of primary antibody solution was added and plates were incubated overnight at 4° C. Plates were washed with wash buffer, after which 100 μL/well of secondary antibody solution was added to the plates and incubated in the dark for 1 hr at room temperature. Plates were washed with wash buffer, followed by a wash with PBS. After completely removing PBS, plates were scanned on the Licor Odyssey Imager. Images were quantified using Licor Odyssey application software. IC50 values were determined by curve fitting using a Collaborative Drug Discovery database (www.collaborativedrug.com).

Experiment [2] has as its target T1, PI3K beta (Homo sapiens, UniProt P42338).
T1 construct: purchased Millipore, Billerica, MA, USA
In words: Luciferase-based luminescence assay (ADP Glo), PI3K beta enzymatic activity. It counts as biochemical. The note with it: for IC50: inhibition of enzymatic activity, ADP Glo, 25 μM ATP, read-out: IC50 p110β; for α/β ratio: ratio of enzymatic IC50 values, Table 1. The procedure:
PI3K catalyzes the conversion of phosphatidylinositol-4,5-bisphosphate (PIP2) and ATP to phosphatidylinositol-3,4,5-trisphosphate (PIP3) and ADP. For all assays, the reaction buffer comprised 50 mM HEPES, pH 7.5, 3 mM MgCl2, 1 mM EGTA, 100 mM NaCl, 0.03% CHAPS and 2 mM DTT. Compounds for testing were dissolved and serially diluted in 100% DMSO (total of 10 concentrations), then diluted 1:25 in reaction buffer.
PI3K beta and gamma enzymatic activity was determined by measuring the amount of ADP produced following the kinase reaction using a luciferase-based luminescence assay (ADP Glo®, Promega Corp., Madison, WI, USA). PI3K enzyme solutions were prepared by diluting PI3K beta (Millipore, Billerica, MA, USA) or PI3K gamma (Invitrogen Corp., Carlsbad, CA, USA) in reaction buffer, to 4× the final assay concentration (final concentrations of enzymes were 4.8 nM and 7.6 nM for PI3K beta and PI3K gamma respectively). A substrate solution was prepared by mixing PIP2 and ATP in reaction buffer at 2× the final assay concentration (final concentrations were 50 μM and 25 μM for PIP2 and ATP respectively). 2.5 μL each of the compound and kinase mixtures were added to individual wells of white low volume 384-well assay plates and mixed by shaking. The reactions were started by adding 5 μL of substrate mixture per well and shaking. The assay plates were covered and reactions were allowed to proceed for 1 hour. Then, 5 μL of reaction mix was transferred to another white low volume 384-well plate, and 5 μL of ADP-Glo™ reagent was added. The plates were briefly centrifuged and incubated for 40 minutes, after which 10 μL of kinase detection buffer was added. The plates then were centrifuged briefly, shaken slowly and equilibrated at room temperature for 30 minutes, after which luminescence was measured using a FlexStation plate reader (Molecular Devices, Sunnyvale, CA, USA). IC50 values were determined by curve fitting using Graphpad Prism software (Graphpad Software, La Jolla, CA, USA).

Sequence of PI3Kα (P27986 2-724): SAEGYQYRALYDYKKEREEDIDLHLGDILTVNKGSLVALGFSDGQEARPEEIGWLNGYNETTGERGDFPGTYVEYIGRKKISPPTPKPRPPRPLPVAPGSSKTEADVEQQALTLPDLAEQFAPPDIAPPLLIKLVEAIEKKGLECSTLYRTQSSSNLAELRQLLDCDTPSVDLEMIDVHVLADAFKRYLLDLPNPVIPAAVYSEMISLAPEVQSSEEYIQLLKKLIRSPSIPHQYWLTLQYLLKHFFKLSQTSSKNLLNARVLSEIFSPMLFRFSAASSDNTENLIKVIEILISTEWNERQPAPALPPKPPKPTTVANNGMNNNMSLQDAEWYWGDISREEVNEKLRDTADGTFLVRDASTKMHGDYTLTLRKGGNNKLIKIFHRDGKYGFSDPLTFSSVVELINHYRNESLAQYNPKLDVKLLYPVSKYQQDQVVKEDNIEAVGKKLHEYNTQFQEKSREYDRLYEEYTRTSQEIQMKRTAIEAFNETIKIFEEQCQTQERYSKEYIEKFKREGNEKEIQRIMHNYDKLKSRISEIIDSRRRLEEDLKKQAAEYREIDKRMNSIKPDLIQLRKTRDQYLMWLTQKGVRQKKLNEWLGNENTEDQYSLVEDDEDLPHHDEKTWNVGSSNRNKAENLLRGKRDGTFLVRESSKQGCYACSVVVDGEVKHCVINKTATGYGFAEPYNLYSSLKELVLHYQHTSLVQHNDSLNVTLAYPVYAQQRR
Sequence of PI3Kα (P42336 whole entry): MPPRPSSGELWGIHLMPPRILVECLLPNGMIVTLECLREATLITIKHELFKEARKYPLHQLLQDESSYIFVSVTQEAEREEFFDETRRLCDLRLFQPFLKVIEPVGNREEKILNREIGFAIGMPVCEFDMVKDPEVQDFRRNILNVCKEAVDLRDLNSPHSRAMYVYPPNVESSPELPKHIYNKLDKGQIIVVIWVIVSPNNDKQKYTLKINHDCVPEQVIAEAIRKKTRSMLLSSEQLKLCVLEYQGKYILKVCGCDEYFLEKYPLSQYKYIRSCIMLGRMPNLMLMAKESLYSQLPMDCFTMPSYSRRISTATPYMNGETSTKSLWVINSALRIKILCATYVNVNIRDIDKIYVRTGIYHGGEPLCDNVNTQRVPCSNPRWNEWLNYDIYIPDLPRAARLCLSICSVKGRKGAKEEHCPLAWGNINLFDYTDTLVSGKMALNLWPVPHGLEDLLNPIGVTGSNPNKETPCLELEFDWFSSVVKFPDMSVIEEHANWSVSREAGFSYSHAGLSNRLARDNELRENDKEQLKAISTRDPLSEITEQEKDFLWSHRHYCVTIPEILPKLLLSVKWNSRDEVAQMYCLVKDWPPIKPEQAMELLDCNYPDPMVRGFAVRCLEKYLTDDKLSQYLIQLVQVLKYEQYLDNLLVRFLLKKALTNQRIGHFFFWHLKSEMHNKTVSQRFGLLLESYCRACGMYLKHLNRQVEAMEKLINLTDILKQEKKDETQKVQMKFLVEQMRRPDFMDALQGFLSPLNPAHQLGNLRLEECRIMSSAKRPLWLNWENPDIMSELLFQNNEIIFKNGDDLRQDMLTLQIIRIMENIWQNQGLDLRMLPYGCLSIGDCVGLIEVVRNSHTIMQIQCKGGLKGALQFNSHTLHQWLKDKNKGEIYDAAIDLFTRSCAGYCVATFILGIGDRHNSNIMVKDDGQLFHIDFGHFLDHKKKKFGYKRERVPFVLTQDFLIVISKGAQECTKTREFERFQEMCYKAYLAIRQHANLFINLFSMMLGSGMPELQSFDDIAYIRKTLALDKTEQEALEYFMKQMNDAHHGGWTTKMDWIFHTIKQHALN
T1 sequence (P42338 whole entry, species assumed): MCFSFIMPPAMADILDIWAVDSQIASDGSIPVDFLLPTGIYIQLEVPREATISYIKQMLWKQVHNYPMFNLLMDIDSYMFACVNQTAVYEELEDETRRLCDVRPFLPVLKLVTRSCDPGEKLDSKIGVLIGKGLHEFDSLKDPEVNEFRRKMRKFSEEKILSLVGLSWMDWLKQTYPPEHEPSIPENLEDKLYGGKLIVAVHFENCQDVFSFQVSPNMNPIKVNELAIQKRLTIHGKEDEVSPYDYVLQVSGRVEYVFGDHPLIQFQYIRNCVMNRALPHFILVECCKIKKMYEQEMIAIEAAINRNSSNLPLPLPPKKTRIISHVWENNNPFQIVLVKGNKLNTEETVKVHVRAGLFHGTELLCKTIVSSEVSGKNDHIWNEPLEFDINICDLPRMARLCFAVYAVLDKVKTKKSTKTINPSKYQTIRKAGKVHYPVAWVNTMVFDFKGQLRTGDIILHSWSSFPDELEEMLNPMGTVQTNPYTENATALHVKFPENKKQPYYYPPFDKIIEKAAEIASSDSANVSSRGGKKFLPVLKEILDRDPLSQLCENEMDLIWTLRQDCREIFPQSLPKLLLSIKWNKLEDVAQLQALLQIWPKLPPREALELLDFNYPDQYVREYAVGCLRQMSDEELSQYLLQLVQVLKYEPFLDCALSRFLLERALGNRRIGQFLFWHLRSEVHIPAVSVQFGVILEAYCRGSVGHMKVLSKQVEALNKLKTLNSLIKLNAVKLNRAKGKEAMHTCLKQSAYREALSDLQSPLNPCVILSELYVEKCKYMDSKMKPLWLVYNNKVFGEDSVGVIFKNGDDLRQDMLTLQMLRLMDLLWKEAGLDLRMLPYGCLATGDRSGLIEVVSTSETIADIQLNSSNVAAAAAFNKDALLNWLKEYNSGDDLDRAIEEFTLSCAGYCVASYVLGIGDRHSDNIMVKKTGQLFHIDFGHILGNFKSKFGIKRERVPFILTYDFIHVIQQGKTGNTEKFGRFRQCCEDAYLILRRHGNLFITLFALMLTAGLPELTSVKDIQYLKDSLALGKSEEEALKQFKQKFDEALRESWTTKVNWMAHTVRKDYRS
T1 sequence (P27986 whole entry partner, species assumed): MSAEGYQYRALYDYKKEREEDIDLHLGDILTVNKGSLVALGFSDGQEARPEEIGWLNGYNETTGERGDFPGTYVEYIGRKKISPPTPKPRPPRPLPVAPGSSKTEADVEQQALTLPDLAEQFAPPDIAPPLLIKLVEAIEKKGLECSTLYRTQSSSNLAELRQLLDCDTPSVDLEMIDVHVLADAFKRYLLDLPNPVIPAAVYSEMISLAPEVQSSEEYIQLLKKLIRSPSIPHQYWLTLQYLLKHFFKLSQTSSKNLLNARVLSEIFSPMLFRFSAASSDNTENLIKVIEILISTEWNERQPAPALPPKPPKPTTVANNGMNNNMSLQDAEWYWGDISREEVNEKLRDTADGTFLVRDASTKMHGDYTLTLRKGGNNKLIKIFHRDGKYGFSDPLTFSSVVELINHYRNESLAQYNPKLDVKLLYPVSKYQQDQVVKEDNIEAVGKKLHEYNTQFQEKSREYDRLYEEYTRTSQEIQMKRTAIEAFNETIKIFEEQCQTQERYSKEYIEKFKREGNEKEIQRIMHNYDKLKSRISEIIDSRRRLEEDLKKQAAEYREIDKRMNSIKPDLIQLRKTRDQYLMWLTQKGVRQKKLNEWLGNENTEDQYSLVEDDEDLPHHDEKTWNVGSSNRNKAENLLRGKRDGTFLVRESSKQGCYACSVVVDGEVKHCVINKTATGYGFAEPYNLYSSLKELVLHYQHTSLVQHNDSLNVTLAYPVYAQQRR

As to `CC(C)(Cc1ccccc1)Nc1nc(N2CCOCC2)nc(-n2c(C(F)F)nc3ccccc32)n1` [Compound A14, 4-(2-(difluoromethyl)-1H-benzo[d]imidazol-1-yl)-N-(2-methyl-1-phenylpropan-2-yl)-6-morpholino-1,3,5-triazin-2-amine], in experiment [1], the IC50 is above 0.5 µM. In addition, in experiment [2], the IC50 is at most 0.1 µM and the α/β ratio entry is “A’”.
On to `CC(C)(Cc1ccccc1F)Nc1nc(N2CCOCC2)nc(-n2c(C(F)F)nc3ccccc32)n1` [Compound A15, 4-(2-(difluoromethyl)-1H-benzo[d]imidazol-1-yl)-N-(1-(2-fluorophenyl)-2-methylpropan-2-yl)-6-morpholino-1,3,5-triazin-2-amine], for which, in experiment [1], the IC50 is above 0.5 µM. In experiment [2], the IC50 was in the range of 0.1 to 0.2 µM and the α/β ratio result is given as “D’”.
For the compound `CC(C)(Cc1ccccc1Cl)Nc1nc(N2CCOCC2)nc(-n2c(C(F)F)nc3ccccc32)n1` [Compound A16, 4-(2-(difluoromethyl)-1H-benzo[d]imidazol-1-yl)-N-(1-(2-chlorophenyl)-2-methylpropan-2-yl)-6-morpholino-1,3,5-triazin-2-amine], in experiment [1], the 50% inhibitory concentration (IC50) is above 0.5 µM. Also, in experiment [2], the IC50 is at most 0.1 µM and the α/β ratio entry is listed as “A’”.
The matching figures for `Cc1ccccc1CC(C)(C)Nc1nc(N2CCOCC2)nc(-n2c(C(F)F)nc3ccccc32)n1` [Compound A18, 4-(2-(difluoromethyl)-1H-benzo[d]imidazol-1-yl)-N-(2-methyl-1-(o-tolyl)propan-2-yl)-6-morpholino-1,3,5-triazin-2-amine]: above 0.5 µM, at most 0.1 µM and “A’”.
For the compound `COc1ccccc1CC(C)(C)Nc1nc(N2CCOCC2)nc(-n2c(C(F)F)nc3ccccc32)n1` [Compound A19, 4-(2-(difluoromethyl)-1H-benzo[d]imidazol-1-yl)-N-(1-(2-methoxyphenyl)-2-methylpropan-2-yl)-6-morpholino-1,3,5-triazin-2-amine], in experiment [2], the IC50 is 0.2 to 0.5 µM and the α/β ratio entry is “D’”.
For `COc1cccc(CC(C)(C)Nc2nc(N3CCOCC3)nc(-n3c(C(F)F)nc4ccccc43)n2)c1` [Compound A21, 4-(2-(difluoromethyl)-1H-benzo[d]imidazol-1-yl)-N-(1-(3-methoxyphenyl)-2-methylpropan-2-yl)-6-morpholino-1,3,5-triazin-2-amine], the IC50 was above 0.5 µM in experiment [1] and 0.1 to 0.2 µM in experiment [2]. The α/β ratio entry in experiment [2] is “C’”.
For the compound `CC(C)(Cc1ccc(F)cc1)Nc1nc(N2CCOCC2)nc(-n2c(C(F)F)nc3ccccc32)n1` [Compound A22, 4-(2-(difluoromethyl)-1H-benzo[d]imidazol-1-yl)-N-(1-(4-fluorophenyl)-2-methylpropan-2-yl)-6-morpholino-1,3,5-triazin-2-amine], the 50% inhibitory concentration (IC50) in experiment [1] is above 0.5 µM; in experiment [2], 0.1 to 0.2 µM. For the same compound, the α/β ratio entry in experiment [2] was “C’”.
Regarding `CC(C)(Cc1cccc2ccccc12)Nc1nc(N2CCOCC2)nc(-n2c(C(F)F)nc3ccccc32)n1` [Compound A27, 4-(2-(difluoromethyl)-1H-benzo[d]imidazol-1-yl)-N-(2-methyl-1-(naphthalen-1-yl)propan-2-yl)-6-morpholino-1,3,5-triazin-2-amine], in experiment [2], the concentration for half-maximal inhibition (IC50) is at most 0.1 µM and the α/β ratio entry was “B’”.
As to `CC(C)(Cc1ccccc1-c1ccncc1)Nc1nc(N2CCOCC2)nc(-n2c(C(F)F)nc3ccccc32)n1` [Compound A33, 4-(2-(difluoromethyl)-1H-benzo[d]imidazol-1-yl)-N-(2-methyl-1-(2-(pyridin-4-yl)phenyl)propan-2-yl)-6-morpholino-1,3,5-triazin-2-amine], in experiment [2], the concentration for half-maximal inhibition (IC50) is at most 0.1 µM and the α/β ratio entry is given as “B’”.
With `CN1CCC(c2ccccc2CC(C)(C)Nc2nc(N3CCOCC3)nc(-n3c(C(F)F)nc4ccccc43)n2)C1` (stereo not shown) [Compound A75, 4-(2-(difluoromethyl)-1H-benzo[d]imidazol-1-yl)-N-(2-methyl-1-(2-(1-methylpyrrolidin-3-yl)phenyl)propan-2-yl)-6-morpholino-1,3,5-triazin-2-amine], the IC50 in experiment [1] is above 0.5 µM.

For orientation: IC50 means the concentration needed to halve the response being measured.
